Legend:
[1] = system: 27-mer adenosine aptamer (DNA, aptamer) ACCTGGGGGAGTATTGCGGAGGAAGGT; assay: CNT FET aptasensor, Hill-Langmuir fit; settings: no added salt stated; 2 mM Tris-HCl, pH 7.4; Hill n 0.6 ± 0.08; immobilised aptamer
[2] = system: 35-mer adenosine aptamer (DNA, aptamer) AAAAAAAAAACCTGGGGGAGTATTGCGGAGGAAGG; assay: CNT FET aptasensor, Hill-Langmuir fit; settings: no added salt stated; 2 mM Tris-HCl, pH 7.4; Hill n 0.2 ± 0.03; immobilised aptamer

- Kd [1]: (1.6 ± 1.4) × 10^−7 M
- Kd [2]: (1.2 ± 1.08) × 10^−9 M
SMILES: Nc1ncnc2c1ncn2[C@@H]1O[C@H](CO)[C@@H](O)[C@H]1O
